According to paper PMC4030749 (Molecular cancer therapeutics, 2012):
Values joined by “and” are separate entries in the source; they are usually repeats but may differ in a detail not shown here. Equal values may be shown once. One block for each molecule: values may come before it.

What was measured:
[1] = test system: LS174T and C6 tumor-bearing mice; assay: Pretargeted organ/tissue biodistribution in tumor-bearing mice; type: in vivo
Sm3e/C825 bsAb [2] = details: read-out: binding affinity (KD) to bsAb; cited from earlier work
Sm3e/C825 bsAb [3] = assay: Binding affinity of Sm3e/C825 bsAb; details: unlabeled (no metal) DOTA
[4] = pretargeted protocol, 4 h p.i., n=3
[5] = pretargeted protocol, 24 h p.i., n=3
[6] = pretargeted protocol, 48 h p.i., n=3

antigen-positive tumor uptake, pretargeted versus ^177Lu-DOTA alone ([1]; 4 h post-injection): approximately 90 fold | Biodistribution, Adipose [1, 4]: 2.78 ± 1.08 %ID/g | Biodistribution, Blood [1, 4]: 0.42 ± 0.02 %ID/g | Biodistribution, Bone (femur) [1, 4]: 1.49 ± 0.38 %ID/g | Biodistribution, C6 Tumor (antigen-negative) [1, 4]: 9.82 ± 0.35 (0.26 ± 0.08 g) %ID/g | Biodistribution, Heart [1, 4]: 0.25 ± 0.16 %ID/g | Biodistribution, Kidneys (both) [1, 4]: 0.92 ± 0.05 %ID/g | Biodistribution, LS174T Tumor (antigen-positive) [1, 4]: 7.44 ± 0.41 (0.09 ± 0.03 g) %ID/g | Biodistribution, Lg Intestine [1, 4]: 0.13 ± 0.09 %ID/g | Biodistribution, Liver [1, 4]: 0.59 ± 0.21 %ID/g | Biodistribution, Lung [1, 4]: 1.25 ± 0.43 %ID/g | Biodistribution, Muscle [1, 4]: 1.56 ± 0.56 %ID/g | Biodistribution, Skin [1, 4]: 4.68 ± 1.06 %ID/g | Biodistribution, Sm Intestine [1, 4]: 0.28 ± 0.02 %ID/g | Biodistribution, Spleen [1, 4]: 0.39 ± 0.09 %ID/g | Biodistribution, Stomach (with contents) [1, 4]: 0.21 ± 0.12 %ID/g | Tumor/organ ratio, Adipose [1, 4]: 3.2 ± 1.5 | Tumor/organ ratio, Bone (femur) [1, 4]: 5.3 ± 1.6 | Tumor/organ ratio, C6 Tumor [1, 4]: 0.7 ± 0.1 | Tumor/organ ratio, Heart [1, 4]: 49 ± 36 | Tumor/organ ratio, LS174T Tumor [1, 4]: 1 | Tumor/organ ratio, LS174T tumor-to-Blood [1, 4]: 18 ± 2 | Tumor/organ ratio, Lg Intestine [1, 4]: 80 ± 36 | Tumor/organ ratio, Liver [1, 4]: 13.9 ± 3.7 | Tumor/organ ratio, Lung [1, 4]: 7.2 ± 3.7 | Tumor/organ ratio, Muscle [1, 4]: 5.3 ± 1.6 | Tumor/organ ratio, Skin [1, 4]: 1.7 ± 0.4 | Tumor/organ ratio, Sm Intestine [1, 4]: 27 ± 4 | Tumor/organ ratio, Spleen [1, 4]: 20 ± 5 | Tumor/organ ratio, Stomach (with contents) [1, 4]: 48 ± 22 | Biodistribution, Adipose [1, 5]: 0.67 ± 0.12 %ID/g | Biodistribution, Blood [1, 5]: 0.04 ± 0.01 %ID/g | Biodistribution, Bone (femur) [1, 5]: 0.43 ± 0.12 %ID/g | Biodistribution, C6 Tumor (antigen-negative) [1, 5]: 4.23 ± 0.54 (0.26 ± 0.07 g) %ID/g | Biodistribution, Heart [1, 5]: 0.05 ± 0.01 %ID/g | Biodistribution, Kidneys (both) [1, 5]: 0.88 ± 0.16 %ID/g | Biodistribution, Lg Intestine [1, 5]: 0.52 ± 0.56 %ID/g | Biodistribution, Liver [1, 5]: 0.51 ± 0.23 %ID/g | Biodistribution, Lung [1, 5]: 0.37 ± 0.07 %ID/g | Biodistribution, Muscle [1, 5]: 0.41 ± 0.24 %ID/g | Biodistribution, Skin [1, 5]: 1.05 ± 0.25 %ID/g | Biodistribution, Sm Intestine [1, 5]: 0.08 ± 0.04 %ID/g | Biodistribution, Spleen [1, 5]: 0.29 ± 0.09 %ID/g | Biodistribution, Stomach (with contents) [1, 5]: 0.09 ± 0.07 %ID/g | Tumor/organ ratio, Adipose [1, 5]: 23 ± 6 | Tumor/organ ratio, Bone (femur) [1, 5]: 38 ± 16 | Tumor/organ ratio, C6 Tumor [1, 5]: 3.4 ± 0.3 | Tumor/organ ratio, Heart [1, 5]: 323 ± 108 | Tumor/organ ratio, LS174T Tumor [1, 5]: 1 | Tumor/organ ratio, LS174T tumor-to-Blood [1, 5]: 380 ± 90 | Tumor/organ ratio, Lg Intestine [1, 5]: 83 ± 53 | Tumor/organ ratio, Liver [1, 5]: 33 ± 11 | Tumor/organ ratio, Lung [1, 5]: 39 ± 3 | Tumor/organ ratio, Muscle [1, 5]: 57 ± 41 | Tumor/organ ratio, Skin [1, 5]: 14 ± 2 | Tumor/organ ratio, Sm Intestine [1, 5]: 217 ± 76 | Tumor/organ ratio, Spleen [1, 5]: 52 ± 12 | Tumor/organ ratio, Stomach (with contents) [1, 5]: 252 ± 119 | Biodistribution, Adipose [1, 6]: 0.60 ± 0.29 %ID/g | Biodistribution, Bone (femur) [1, 6]: 0.24 ± 0.10 %ID/g | Biodistribution, C6 Tumor (antigen-negative) [1, 6]: 2.89 ± 2.28 (0.28 ± 0.13 g) %ID/g | Biodistribution, Heart [1, 6]: 0.07 ± 0.03 %ID/g | Biodistribution, Kidneys (both) [1, 6]: 0.62 ± 0.19 %ID/g | Biodistribution, LS174T Tumor (antigen-positive) [1, 6]: 13.44 ± 3.25 (0.49 ± 0.09 g) %ID/g | Biodistribution, Lg Intestine [1, 6]: 0.11 ± 0.04 %ID/g | Biodistribution, Liver [1, 6]: 0.56 ± 0.35 %ID/g | Biodistribution, Lung [1, 6]: 0.21 ± 0.04 %ID/g | Biodistribution, Muscle [1, 6]: 0.15 ± 0.07 %ID/g | Biodistribution, Skin [1, 6]: 0.71 ± 0.20 %ID/g | Biodistribution, Sm Intestine [1, 6]: 0.14 ± 0.11 %ID/g | Biodistribution, Spleen [1, 6]: 0.64 ± 0.60 %ID/g | Biodistribution, Stomach (with contents) [1, 6]: 0.22 ± 0.24 %ID/g | Tumor/organ ratio, Adipose [1, 6]: 28 ± 13 | Tumor/organ ratio, Bone (femur) [1, 6]: 60 ± 19 | Tumor/organ ratio, C6 Tumor [1, 6]: 10 ± 9 | Tumor/organ ratio, Heart [1, 6]: 244 ± 85 | Tumor/organ ratio, LS174T Tumor [1, 6]: 1 | Tumor/organ ratio, Lg Intestine [1, 6]: 128 ± 16 | Tumor/organ ratio, Liver [1, 6]: 32 ± 13 | Tumor/organ ratio, Lung [1, 6]: 63 ± 6 | Tumor/organ ratio, Muscle [1, 6]: 105 ± 40 | Tumor/organ ratio, Skin [1, 6]: 20 ± 8 | Tumor/organ ratio, Sm Intestine [1, 6]: 183 ± 129 | Tumor/organ ratio, Spleen [1, 6]: 40 ± 21 | Tumor/organ ratio, Stomach (with contents) [1, 6]: 276 ± 236
SMILES: O=C([O-])CN1CCN(CC(=O)[O-])CCN(CC(=O)[O-])CCN(CC(=O)[O-])CC1.[177Lu+3].[H+] [^177Lu-DOTA]
Biodistribution, LS174T Tumor (antigen-positive) [1, 5]: 14.3 ± 1.8 %ID/g and 14.34 ± 1.83 (0.21 ± 0.10 g) %ID/g | Kd (Sm3e/C825 bsAb [2]): 0.4 nM

Biodistribution, LS174T Tumor (antigen-positive) [1, 5]: 0.5 ± 0.1 %ID/g | Tumor/organ ratio, LS174T tumor-to-Kidneys (both) [1, 5]: 1.2 ± 0.4
SMILES: O=C([O-])CN1CCN(CC(=O)[O-])CCN(CC(=O)[O-])CCN(CC(=O)[O-])CC1.[111In+3] [^111In-DOTA]
Kd (Sm3e/C825 bsAb [2]): 20 nM

SMILES: O=C(O)CN1CCN(CC(=O)O)CCN(CC(=O)O)CCN(CC(=O)O)CC1 [DOTA, 1,4,7,10-Tetraazacyclododecane-1,4,7,10-tetraacetic acid]
binding to pretargeted anti-DOTA binding sites (Sm3e/C825 bsAb [3]): no observable binding
